Data on six molecules can be found in US10577367B2, “IRAK4 inhibiting agents” (BIOGEN MA INC., priority 2014, dated 2020).

pIC50: −log10 of the molar value. Where only a bound is given, the exact number is not on record here.

IRAK4, sequence (Q9NWZ3 whole entry, species assumed): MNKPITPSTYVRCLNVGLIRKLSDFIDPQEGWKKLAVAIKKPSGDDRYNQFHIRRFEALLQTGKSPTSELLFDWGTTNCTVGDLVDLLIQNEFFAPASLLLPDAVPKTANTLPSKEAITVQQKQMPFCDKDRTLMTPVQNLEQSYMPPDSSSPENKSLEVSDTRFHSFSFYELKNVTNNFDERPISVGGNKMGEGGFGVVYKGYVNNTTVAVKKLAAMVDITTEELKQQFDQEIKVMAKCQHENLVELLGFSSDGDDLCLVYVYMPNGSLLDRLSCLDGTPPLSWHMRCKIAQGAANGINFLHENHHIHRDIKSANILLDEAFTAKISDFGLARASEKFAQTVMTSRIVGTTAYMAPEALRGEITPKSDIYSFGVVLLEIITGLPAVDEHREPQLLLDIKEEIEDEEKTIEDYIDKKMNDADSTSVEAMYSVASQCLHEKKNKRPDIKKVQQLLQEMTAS

This assay concerns the target IRAK4 (Homo sapiens (Human), UniProt Q9NWZ3). The assay can be described thus: IRAK-4 AlphaScreen biochemical kinase assay. The note with it: 1 nM IRAK4, 1 mM ATP, 3.5 h at RT. The procedure: The biochemical assay is in a AlphaScreen format. The kinase reaction is based on the IRAK-4 phosphorylation of a biotin labeled peptide. The phosphopeptide is incubated with anti-phosphothreonine antibody as well as streptavidin- and protein A-coated beads. Binding of the protein-A coated beads to the antibody and the streptavidin beads to the peptide, leads to an energy transfer from one bead to the other, ultimately producing a luminescent/fluorescent signal.
The compounds described herein were tested for in the above biochemical assay.
(In general: Alpha assays give light when donor and acceptor beads are brought close together.)
In general, pIC50 refers to the negative decadic logarithm of the IC50, by convention in mol/L. Low values mean a high IC50, high ones a low IC50. The molecule `N#Cc1cc(-c2cncc(NC(=O)C(F)(F)F)c2)cc2c1cnn2-c1cccc(C(F)(F)F)n1` [Example 208, N-(5-(4-cyano-1-(6-(trifluoromethyl)pyridin-2-yl)-1H-indazol-6-yl)pyridin-3-yl)-2,2,2-trifluoroacetamide] had a pIC50 of less than 5.00.

In turn, `O=C1CCCc2ccc(-c3ccc4cnn(-c5cccc(C(F)(F)F)n5)c4c3)nc21` [Example 212, 2-(1-(6-(trifluoromethyl)pyridin-2-yl)-1H-indazol-6-yl)-6,7-dihydroquinolin-8(5H)-one] showed a pIC50 of less than 5.00.

The molecule `CCC(N)c1cccc(-c2ccc3cnc(-c4cccc(C)n4)n3c2)n1` (stereo not drawn) [Example 275, 1-(6-(3-(6-methylpyridin-2-yl)imidazo[1,5-a]pyridin-6-yl)pyridin-2-yl)propan-1-amine] had a pIC50 of more than 7.00.

In the case of `CCCC(N)c1cccc(-c2ccc3cnc(-c4cccc(C)n4)n3c2)n1` (stereo not drawn) [Example 276, 1-(6-(3-(6-methylpyridin-2-yl)imidazo[1,5-a]pyridin-6-yl)pyridin-2-yl)butan-1-amine], the pIC50 was more than 7.00.

`CCC[C@H](N)c1cccc(-c2cc(N3CCCCC3)c3cnn(-c4cccc(CO)n4)c3c2)n1` [Example 324, (S)-(6-(6-(6-(1-aminobutyl)pyridin-2-yl)-4-(piperidin-1-yl)-1H-indazol-1-yl)pyridin-2-yl)methanol] gave a negative-log IC50 (pIC50) of more than 7.00.

In turn, `CCC[C@H](N)c1cccc(-c2cc(C3=CCN(C)CC3)c3cnn(-c4cccc(CO)n4)c3c2)n1` [Example 423, (S)-(6-(6-(6-(1-aminobutyl)pyridin-2-yl)-4-(1-methyl-1,2,3,6-tetrahydropyridin-4-yl)-1H-indazol-1-yl)pyridin-2-yl)methanol] showed a pIC50 of more than 7.00.
